One assay has as its target T1, Human GPR120 short form (Homo sapiens, UniProt Q5NUL3).
T1 construct: expressed in transfected cells
T1 sequence (Q5NUL3 1-361): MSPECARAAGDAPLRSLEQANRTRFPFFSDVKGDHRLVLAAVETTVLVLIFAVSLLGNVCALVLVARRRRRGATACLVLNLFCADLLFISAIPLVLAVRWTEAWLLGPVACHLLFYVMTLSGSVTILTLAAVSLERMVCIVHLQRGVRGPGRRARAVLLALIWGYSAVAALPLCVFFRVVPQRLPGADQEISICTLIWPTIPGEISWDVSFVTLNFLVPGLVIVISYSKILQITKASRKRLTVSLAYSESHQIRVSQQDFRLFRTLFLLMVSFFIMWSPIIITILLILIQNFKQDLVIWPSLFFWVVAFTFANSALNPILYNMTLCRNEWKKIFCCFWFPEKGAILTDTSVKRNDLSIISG
The assay is described as follows: Human GPR120 calcium flux assay, Procedure Calcium B (4200 cells/well). In kind it is cell-based. On the procedure: Human GPR120 in Calcium Flux Assay
These cells are first loaded with the Ca^+2 sensitive dye, Fluo-4 NW. Upon stimulation, intracellular released Ca^+2 can bind to the dye and alter its fluorescence intensity. This increase in fluorescence signal, and thus the flux in intracellular [Ca^2+], is detected and quantitated by fluorescence imaging using a FLIPR reader. The effect of the agonist is measured as a function of concentration and used to calculate an EC50 based upon a response curve.
In this procedure 4200 cells/well were employed.
A Human GPR120 clone (Genbank accession number NM_001195755.1) was placed into the pcDNA3.1 mammalian expression vector carrying the neomycin resistance gene. A stable mammalian cell was generated by placing the above clone into a HEK293 background. […] Cells were split 2 times a week to keep the cells in the log-phase growth. […]
The assay was performed on a FLIPR plate reader using the following parameters. Baseline was read for 10 seconds at 1 sec intervals. The program was set to transfer 10 μL of ligand from compound plate to cell plate after baseline reading. Aspiration was executed at: 10 μL/sec speed, 4.6 μL height, Dispensing was executed at: 30 μL/sec speed, 45 μL height. After compound addition, each well was read for 300 sec, with measurements collected at 1 sec intervals.
The kinetic data from the FLIPR was based upon a 5 minute window for data collection. The fluorescence of each sample well was used for individual calculations of a normalized RFU value, which was defined as maximum response minus the minimum response. The normalized fluorescence reading (RFU) was calculated as follows: RFU=Fmax−Fmin
The Fitting Equation was: Y=Bottom+(Top-Bottom)/(1+10^((Log EC50−X)*HillSlope)), where X is the log of the concentration and Y is the response.
(In general: Calcium flux is commonly read through the fluorescence of an indicator in the cells.)

For a further assay, the target named is T2, human GPR40 (Homo sapiens, UniProt O14842).
T2 construct: expressed in transfected cells
T2 sequence (O14842 whole entry): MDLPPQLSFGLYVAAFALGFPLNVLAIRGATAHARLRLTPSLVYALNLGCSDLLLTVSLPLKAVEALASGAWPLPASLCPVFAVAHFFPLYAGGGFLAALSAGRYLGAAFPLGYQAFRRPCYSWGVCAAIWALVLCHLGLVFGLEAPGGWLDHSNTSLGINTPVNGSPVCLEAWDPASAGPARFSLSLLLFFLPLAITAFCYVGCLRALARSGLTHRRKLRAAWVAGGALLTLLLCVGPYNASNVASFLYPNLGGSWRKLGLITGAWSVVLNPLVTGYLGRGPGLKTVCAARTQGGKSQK
The assay is described as follows: GPR40 calcium flux assay, human GPR40. In kind it is cell-based. The conditions noted are these: HEK293 cells stably expressing GPR40; table does not say human or rat. Here is the method:
Compounds were tested in a calcium flux assay using transfected HEK293 cells stably expressing either human GPR40 or rat GPR40. Human GPR40 expressing cells were cultured in DMEM−High Glucose media supplemented with 10% fetal bovine serum, 1×L-Glutamine, 1×Penicillin/Streptomycin and 500 μg/mL G418. Rat GPR40 expressing cells were cultured in DMEM−High Glucose media supplemented with 10% fetal bovine serum and 1 μg/mL puromycin. Cells were plated into poly-D-lysine coated 384-well plates and cultured overnight in a 37° C. humidified tissue culture incubator under 5% CO2/[…] atmosphere.
On the day of the experiment, the culture media was replaced with assay buffer (HBSS, 20 mM HEPES, 0.1% BSA) and the cells incubated at 37° C. for 1 h. Calcium-sensitive fluorescent dye (Fluo 8 No-Wash Calcium Dye, ABD Bioquest) was then added and the cells incubated for another 30 min at 37° C. followed by 15 min at room temperature while protected from the light. The cell plate and a plate of diluted compounds of Formula (I) were loaded into a fluorescent plate reader that added compounds onto the cells while measuring the fluorescence intensity of each well. The plate reader recorded fluorescence intensity at 1 second intervals for 8 min and provided the data for analysis in an Excel format. EC50 values were calculated using Prism (GraphPad) software.

Regarding `O=C(O)CCc1cc(F)c(OCC2=C(Cc3ccccc3)CCC2)c(F)c1` [Compound 330, 3-[4-[(2-benzylcyclopenten-1-yl)methoxy]-3,5-difluoro-phenyl]Propanoic Acid], the EC50 at Human GPR120 short form was 492 nM; on human GPR40, above 5000 nM. In the case of `Cc1ccccc1C1=C(COc2ccc(CCC(=O)O)c(C(F)(F)F)c2)CCC1` [Compound 257, 3-[4-[[2-(o-tolyl)cyclopenten-1-yl]methoxy]-2-(trifluoromethyl)phenyl]Propanoic Acid], the EC50 stood at 2640 nM on Human GPR120 short form and 337 nM at human GPR40. As to `Cc1c(CCC(=O)O)ccc(OCC2=C(CC3CCCC3)CCC2)c1C` [Compound 427, 3-[4-[[2-(cyclopentylmethyl)cyclopenten-1-yl]methoxy]-2,3-dimethyl-phenyl]Propanoic Acid], on Human GPR120 short form, the EC50 is 231 nM. For the compound `O=C(O)CCc1ccc(OCC2=C(c3ccccc3Cl)CCC2)cc1Cl` [Compound 295, 3-[2-chloro-4-[[2-(2-chlorophenyl)cyclopenten-1-yl]methoxy]phenyl]Propanoic Acid], the figures for the EC50 on Human GPR120 short form and on human GPR40 were 1650 nM and 234 nM, respectively. The matching figures for `CC1CCC(c2ccccc2)=C1COc1ccc(CCC(=O)O)c(Cl)c1` (stereo not drawn) [Compound 334, 3-[2-chloro-4-[(5-methyl-2-phenyl-cyclopenten-1-yl)methoxy]phenyl]Propanoic Acid]: 1730 nM and 2130 nM.

For the compound `O=C(O)CCc1ccc(OCC2=C(Cc3ccccc3)CCCC2)cc1` [Compound 581, 3-[4-[(2-benzylcyclohexen-1-yl)methoxy]phenyl]Propanoic Acid], the EC50 came out at 2110 nM at Human GPR120 short form and 591 nM on human GPR40. Consider `O=C(O)CCc1ccc(OCC2=C(Cc3cncs3)CCCC2)cc1C(F)(F)F` [Compound 596, 3-[4-[[2-(thiazol-5-ylmethyl)cyclohexen-1-yl]methoxy]-2-(trifluoromethyl)phenyl]Propanoic Acid], for which the EC50 at Human GPR120 short form worked out at 2370 nM; at human GPR40, 324 nM. With `O=C(O)CCc1ccc(OCC2=C(C3CCCC3)CCC2)cc1` [Compound 395, 3-[4-[(2-cyclopentylcyclopenten-1-yl)methoxy]phenyl]Propanoic Acid], the EC50 at Human GPR120 short form is 255 nM; on human GPR40, 188 nM. With `O=C(O)CCc1ccc(OCC2=C(C3CCCC3)CC(F)(F)C2)cc1C(F)(F)F` [Compound 407, 3-[4-[(2-cyclopentyl-4,4-difluoro-cyclopenten-1-yl)methoxy]-2-(trifluoromethyl)phenyl]Propanoic Acid], the EC50 amounted to 150 nM at Human GPR120 short form and 30 nM at human GPR40. The matching figures for `CCC(C)C1=C(COc2ccc(CCC(=O)O)c(C(F)(F)F)c2)CCC1` (stereo not drawn) [Compound 388, 3-[4-[(2-sec-butylcyclopenten-1-yl)methoxy]-2-(trifluoromethyl)phenyl]Propanoic Acid]: 1630 nM and 86 nM. For the compound `O=C(O)CCc1ccc(OCC2=C(Cc3ccccc3)CCC2)cc1C(F)(F)F` [Compound 319, 3-[4-[(2-benzylcyclopenten-1-yl)methoxy]-2-(trifluoromethyl)phenyl]Propanoic Acid], the EC50 was 623 nM at Human GPR120 short form and 55 nM at human GPR40.

For the compound `Cc1cccc(C2=C(COc3cc(C)c(CCC(=O)O)cc3F)CCC2)c1` [Compound 318, 3-[5-fluoro-2-methyl-4-[[2-(m-tolyl)cyclopenten-1-yl]methoxy]phenyl]Propanoic Acid], at Human GPR120 short form, the EC50 was 957 nM.

For the compound `N#Cc1cc(OCC2=C(C3CCCC3)CCC2)ccc1CCC(=O)O` [Compound 414, 3-[2-cyano-4-[(2-cyclopentylcyclopenten-1-yl)methoxy]phenyl]Propanoic Acid], the EC50 at Human GPR120 short form is 2580 nM. On to `CS(=O)(=O)CCCCc1cc(CCC(=O)O)ccc1OCC1=C(c2ccc(Cl)cc2)CCC(F)(F)C1` [Compound 551, 3-[4-[[2-(4-chlorophenyl)-5,5-difluoro-cyclohexen-1-yl]methoxy]-3-(4-methylsulfonylbutyl)phenyl]Propanoic Acid], for which the concentration giving a half-maximal response (EC50) at Human GPR120 short form was above 5000 nM. With `CCc1cc(CCC(=O)O)c(C(F)(F)F)cc1OCC1=C(c2ccc(Cl)cc2)CCC1` [Compound 142, 3-[4-[[2-(4-chlorophenyl)cyclopenten-1-yl]methoxy]-5-ethyl-2-(trifluoromethyl)phenyl]Propanoic Acid], the EC50 on human GPR40 was above 5000 nM. With `O=C(O)CCc1ccc(OCC2=C(CC3CCCC3)CCC2)cc1C(F)(F)F` [Compound 420, 3-[4-[[2-(cyclopentylmethyl)cyclopenten-1-yl]methoxy]-2-(trifluoromethyl)phenyl]Propanoic Acid], the EC50 at Human GPR120 short form was 1190 nM.

`CS(=O)(=O)CCCCc1cc(CCC(=O)O)ccc1OCC1=C(c2ccc(Cl)cc2)CCC1` [Compound 181, 3-[4-[[2-(4-chlorophenyl)cyclopenten-1-yl]methoxy]-3-(4-methylsulfonylbutyl)phenyl]Propanoic Acid]: the EC50 on Human GPR120 short form is above 5000 nM.

As for `CC(Cc1cc(F)c(OCC2=C(c3ccc(Cl)cc3)CCC2)c(F)c1)C(=O)O` (stereo not drawn) [Compound 144, 3-[4-[[2-(4-chlorophenyl)cyclopenten-1-yl]methoxy]-3,5-difluoro-phenyl]-2-methyl-Propanoic Acid], on human GPR40, the EC50 is above 5000 nM. Consider `Cc1cc(OCC2=C(c3cccc(F)c3)CCC2)c(F)cc1CCC(=O)O` [Compound 305, 3-[5-fluoro-4-[[2-(3-fluorophenyl)cyclopenten-1-yl]methoxy]-2-methyl-phenyl]Propanoic Acid], for which the EC50 at Human GPR120 short form turned out to be 378 nM. `O=C(O)CCc1ccc(OCC2=C(c3ccc(Cl)cc3)CC(F)C2)cc1Cl` (stereo not drawn) [Compound 252, 3-[2-chloro-4-[[2-(4-chlorophenyl)-4-fluoro-cyclopenten-1-yl]methoxy]phenyl]Propanoic Acid]: the EC50 at Human GPR120 short form was 265 nM.

Consider `CC(C)(C)c1cc(OCC2=C(c3ccc(Cl)cc3)CCC2)ccc1CCC(=O)O` [Compound 168, 3-[2-tert-butyl-4-[[2-(4-chlorophenyl)cyclopenten-1-yl]methoxy]phenyl]Propanoic Acid], for which the EC50 on Human GPR120 short form was above 5000 nM. Still for that read-out and setting: with `Cc1c(CCC(=O)O)cc(I)c(OCC2=C(c3ccc(I)cc3)CCCC2)c1C` [Compound 524, 3-[5-iodo-4-[[2-(4-iodophenyl)cyclohexen-1-yl]methoxy]-2,3-dimethyl-phenyl]Propanoic Acid] the figure was 1570 nM; with `O=C(O)CCc1cc(F)c(OCC2=C(c3cncs3)CCC(F)(F)C2)c(F)c1` [Compound 549, 3-[4-[(5,5-difluoro-2-thiazol-5-yl-cyclohexen-1-yl)methoxy]-3,5-difluoro-phenyl]Propanoic Acid], 1280 nM; with `O=C(O)CCc1ccc(OCC2=C(c3ccc(Cl)cc3)CCC2)cc1C(F)(F)C(F)(F)F` [Compound 89, 3-[4-[[2-(4-chlorophenyl)cyclopenten-1-yl]methoxy]-2-(1,1,2,2,2-pentafluoroethyl)phenyl]Propanoic Acid], 1410 nM. `O=C(O)CCc1cc(F)c(OCC2=C(c3ccc(Cl)c(F)c3)CCC(F)(F)C2)c(F)c1` [Compound 528, 3-[4-[[2-(4-chloro-3-fluoro-phenyl)-5,5-difluoro-cyclohexen-1-yl]methoxy]-3,5-difluoro-phenyl]Propanoic Acid]: at Human GPR120 short form, the EC50 is 1070 nM. Turning to `CSCCCCc1cc(CCC(=O)O)ccc1OCC1=C(c2ccc(Cl)cc2)CCC(F)(F)C1` [Compound 565, 3-[4-[[2-(4-chlorophenyl)-5,5-difluoro-cyclohexen-1-yl]methoxy]-3-(4-methylsulfanylbutyl)phenyl]Propanoic Acid], at Human GPR120 short form, the EC50 turned out to be 3890 nM.

Broadly, the EC50 is the concentration that produces a half-maximal response.

The record behind these values is patent US11230526B1, “Cylcoalkenyl derivatives useful as agonists of the GPR120 and/or GPR40 receptors” (Janssen Pharmaceutica NV, priority 2018, dated 2022).
